Data reported in patent US8633245B2, “PAI-1 inhibitor” (Institute of Medicinal Molecular Design, Inc., priority 2008, dated 2014).

Target: T1, recombinant human PAI-1 (Homo sapiens, UniProt P05121)
T1 construct: purchased Molecular Innovations, Inc
Assay: Test Example 2: human PAI-1 inhibitory activity (tPA fluorogenic substrate, pH 7.4 HEPES buffer)
Assay type: biochemical
Settings: for inhibition at 3 µM / inhibition at 1 µM / inhibition at 0.3 µM: read-out: Inhibition Rate of PAI-1 Activity (%); for Inhibition Rate of PAI-1 Activity (%): human PAI-1
Procedure: 0.1 M HEPES, 0.1 M NaCl. 1 mM EDTA. 0.1% Polyethylene glycol 8,000 (Hampton Research Corporation),
2 mM Dimethyldecylphoshine oxide [Apo-10] (Fluka Corporation)

T1 sequence (P05121 24-402): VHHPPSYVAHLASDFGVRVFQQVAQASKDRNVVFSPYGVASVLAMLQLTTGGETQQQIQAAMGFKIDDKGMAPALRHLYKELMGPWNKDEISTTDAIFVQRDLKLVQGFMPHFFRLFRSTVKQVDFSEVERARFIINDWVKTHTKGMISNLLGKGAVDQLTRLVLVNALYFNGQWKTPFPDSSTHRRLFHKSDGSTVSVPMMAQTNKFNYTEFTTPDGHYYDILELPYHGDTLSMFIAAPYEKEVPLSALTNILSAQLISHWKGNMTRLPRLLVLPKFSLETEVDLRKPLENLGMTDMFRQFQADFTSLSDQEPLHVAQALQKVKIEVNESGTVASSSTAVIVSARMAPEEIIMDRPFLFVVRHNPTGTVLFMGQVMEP

Compound | IC50 [nM] | Inhibition Rate of PAI-1 Activity (%) (compound concentration 3 μM) | Inhibition Rate of PAI-1 Activity (%) (compound concentration 1 μM) | further results
CC(C)(C)Oc1ccc(-c2ccc(OC(F)(F)F)cc2)cc1N(CCCCc1ccccc1)C(=O)C(=O)O [Compound 373] | 1580 | – | – | –
CCCCCOc1ccc(-c2ccc(OC(F)(F)F)cc2)cc1N(CCCCOc1ccccc1)C(=O)C(=O)O [Compound 374] | 880 | – | – | inhibition at 3 µM: > 99%
CCCCCCCCCCCCCCCOc1ccc(-c2ccc(OC(F)(F)F)cc2)cc1N(CCCCc1ccccc1)C(=O)C(=O)O [Compound 375] | < 100 | – | – | inhibition at 1 µM: > 99%
CCCCCOc1cc(-c2cccc(C)c2)ccc1N(CCCCc1ccccc1)C(=O)C(=O)O [Compound 376] | 790 | – | – | –
CCCCCOc1cc(-c2cccc(C(F)(F)F)c2)ccc1N(CCCCc1ccccc1)C(=O)C(=O)O [Compound 377] | 480 | – | – | –
CCCCCOc1ccc(-c2cccc(C(F)(F)F)c2)cc1N(CCCCc1ccccc1)C(=O)C(=O)O [Compound 378] | 620 | – | – | –
CCCCCOc1ccc(-c2cccc(C)c2)cc1N(CCCCc1ccccc1)C(=O)C(=O)O [Compound 379] | 640 | – | – | –
CCCCCCCCCOc1cc(-c2ccc(OC(F)(F)F)cc2)ccc1N(CCCCc1ccccc1)C(=O)C(=O)O [Compound 380] | < 100 | – | – | inhibition at 3 µM: > 99%
O=C(O)C(=O)N(CCCCc1ccccc1)c1cc(-c2ccc(OC(F)(F)F)cc2)ccc1OCCCCC(F)(F)F [Compound 381] | 1040 | – | – | inhibition at 3 µM: > 99%
CCCCCOc1ccc(-c2ccc(OC(F)(F)F)cc2)cc1N(CCCCc1ccc(F)cc1)C(=O)C(=O)O [Compound 382] | 650 | – | – | –
O=C(O)C(=O)N(CCCCc1ccccc1)c1cc(-c2ccc(OC(F)(F)F)cc2)ccc1OCCC(F)(F)F [Compound 383] | 1340 | – | – | –
CCCCCOc1ccc(-c2ccc(OC(F)(F)F)cc2)cc1N(CCCCc1ccc(Cl)cc1)C(=O)C(=O)O [Compound 384] | 510 | – | – | –
CCCCCCCCCCCCCCCOc1cc(-c2ccc(OC(F)(F)F)cc2)ccc1N(CCCCc1ccccc1)C(=O)C(=O)O [Compound 385] | < 100 | – | – | inhibition at 0.3 µM: > 99%; inhibition at 1 µM: > 99%; inhibition at 3 µM: > 99%
CCCCCCCOc1cc(-c2ccc(OC(F)(F)F)cc2)ccc1N(CCCCc1ccccc1)C(=O)C(=O)O [Compound 386] | 470 | – | – | inhibition at 1 µM: > 99%; inhibition at 3 µM: > 99%
CCCCCCCCCOc1ccc(N(CCCCc2ccccc2)C(=O)C(=O)O)cc1-c1ccc(OC(F)(F)F)cc1 [Compound 387] | < 100 | – | – | inhibition at 0.3 µM: > 99%; inhibition at 1 µM: > 99%; inhibition at 3 µM: > 99%
CCCCCCCCCOc1cc(N(Cc2ccc(C(C)(C)C)cc2)C(=O)C(=O)O)ccc1-c1ccc(OC(F)(F)F)cc1 [Compound 388] | < 100 | – | – | inhibition at 0.3 µM: > 99%; inhibition at 1 µM: > 99%; inhibition at 3 µM: > 99%
CCCCCCCCCOc1cc(N(CCCCc2ccccc2)C(=O)C(=O)O)ccc1-c1ccc(OC(F)(F)F)cc1 [Compound 389] | < 100 | – | – | inhibition at 1 µM: > 99%; inhibition at 3 µM: > 99%
CCCCCOc1ccc(-c2ccc(C(F)(F)F)cc2)cc1N(CCCCc1ccccc1)C(=O)C(=O)O [Compound 390] | 650 | – | – | –
CCCCCOc1ccc(-c2cccc(OC(F)(F)F)c2)cc1N(CCCCc1ccccc1)C(=O)C(=O)O [Compound 391] | 780 | – | – | –
CCCCCOc1cc(-c2ccc(C(F)(F)F)cc2)ccc1N(CCCCc1ccccc1)C(=O)C(=O)O [Compound 392] | 710 | – | – | inhibition at 3 µM: > 99%

Compound | IC50 [nM] | Inhibition Rate of PAI-1 Activity (%) (compound concentration 3 μM) | Inhibition Rate of PAI-1 Activity (%) (compound concentration 1 μM) | further results
CCCCCOc1cc(-c2cccc(OC(F)(F)F)c2)ccc1N(CCCCc1ccccc1)C(=O)C(=O)O [Compound 393] | 690 | – | – | –
CCCCCCCOc1ccc(N(CCCCc2ccccc2)C(=O)C(=O)O)cc1-c1ccc(OC(F)(F)F)cc1 [Compound 394] | 220 | – | – | inhibition at 3 µM: > 99%
O=C(O)c1cc(-c2ccc(OC(F)(F)F)cc2)ccc1OCc1ccccc1 [Compound 401] | – | 15 | – | Inhibition Rate of PAI-1 Activity (%) (compound concentration 10 μM): 17%; Inhibition Rate of PAI-1 Activity (%) (compound concentration 25 μM): 53%
CCCCOc1ccc(-c2ccc(OC(F)(F)F)cc2)cc1/C=C/C(=O)O [Compound 405] | – | 63 | 14 | Inhibition Rate of PAI-1 Activity (%) (compound concentration 10 μM): >99%; Inhibition Rate of PAI-1 Activity (%) (compound concentration 25 μM): 95%
CCCCOc1ccc(-c2ccc(OC(F)(F)F)cc2)cc1CCC(=O)O [Compound 407] | – | 41 | 14 | Inhibition Rate of PAI-1 Activity (%) (compound concentration 10 μM): >99%; Inhibition Rate of PAI-1 Activity (%) (compound concentration 25 μM): 98%
CC(C)(C)c1ccc(COc2ccc(NS(=O)(=O)c3ccc(OC(F)(F)F)cc3)cc2CCC(=O)O)cc1 [Compound 415] | – | 98 | 41 | Inhibition Rate of PAI-1 Activity (%) (compound concentration 10 μM): >99%; Inhibition Rate of PAI-1 Activity (%) (compound concentration 25 μM): >99%
CN(C(=O)c1ccc(OC(F)(F)F)cc1)c1ccc(OCc2ccc(C(C)(C)C)cc2)c(CCC(=O)O)c1 [Compound 416] | – | 54 | 26 | Inhibition Rate of PAI-1 Activity (%) (compound concentration 10 μM): >99%; Inhibition Rate of PAI-1 Activity (%) (compound concentration 25 μM): >99%
CC(C)(C)c1ccc(COc2ccc(N3CCN(c4ccc(OC(F)(F)F)cc4)CC3)cc2/C=C/C(=O)O)cc1 [Compound 418] | – | 95 | 73 | Inhibition Rate of PAI-1 Activity (%) (compound concentration 10 μM): 94%; Inhibition Rate of PAI-1 Activity (%) (compound concentration 25 μM): 90%
CC(C)(C)c1ccc(COc2ccc(N3CCN(c4ccc(OC(F)(F)F)cc4)CC3)cc2CCC(=O)O)cc1 [Compound 419] | – | 93 | 41 | Inhibition Rate of PAI-1 Activity (%) (compound concentration 10 μM): 98%; Inhibition Rate of PAI-1 Activity (%) (compound concentration 25 μM): >99%
CC(C)(C)c1ccc(COc2ccc(-c3ccc(OC(F)(F)F)cc3)cc2C(=O)O)cc1 [Compound 421] | – | 81 | 14 | Inhibition Rate of PAI-1 Activity (%) (compound concentration 0.1 μM): 0%; Inhibition Rate of PAI-1 Activity (%) (compound concentration 0.3 μM): 3%
CCCCC(CC(=O)O)c1cc(-c2ccc(OC(F)(F)F)cc2)ccc1Oc1ccc(C(C)(C)C)cc1 (centres unmarked) [Compound 422] | – | >99 | 72 | Inhibition Rate of PAI-1 Activity (%) (compound concentration 0.1 μM): 12%; Inhibition Rate of PAI-1 Activity (%) (compound concentration 0.3 μM): 24%
CCCCC(Nc1cc(-c2ccc(OC(F)(F)F)cc2)ccc1Oc1ccc(C(C)(C)C)cc1)C(=O)O (centres unmarked) [Compound 423] | – | 96 | 74 | Inhibition Rate of PAI-1 Activity (%) (compound concentration 0.1 μM): 1%; Inhibition Rate of PAI-1 Activity (%) (compound concentration 0.3 μM): 1%
CCCCCOc1cc(-c2ccc(OC(F)(F)F)cc2)cc(OCCCCC)c1OCC(=O)O [Compound 424] | – | >99 | 38 | Inhibition Rate of PAI-1 Activity (%) (compound concentration 0.1 μM): 0%; Inhibition Rate of PAI-1 Activity (%) (compound concentration 0.3 μM): 4%
CCCCCCCOc1cc(-c2ccc(OC(F)(F)F)cc2)cc(OCCCCCCC)c1OCC(=O)O [Compound 425] | – | – | >99 | Inhibition Rate of PAI-1 Activity (%) (compound concentration 0.1 μM): 17%; Inhibition Rate of PAI-1 Activity (%) (compound concentration 0.3 μM): 54%
CCCCC(Oc1cc(Oc2ccc(C(C)(C)C)cc2)cc(-c2ccc(OC(F)(F)F)cc2)c1)C(=O)O (centres unmarked) [Compound 426] | – | 97 | 95 | Inhibition Rate of PAI-1 Activity (%) (compound concentration 0.1 μM): 10%; Inhibition Rate of PAI-1 Activity (%) (compound concentration 0.3 μM): 29%
CC(C)(C)c1ccc(Oc2cc(OCC(=O)O)cc(-c3ccc(OC(F)(F)F)cc3)c2)cc1 [Compound 427] | – | 97 | 62 | Inhibition Rate of PAI-1 Activity (%) (compound concentration 0.1 μM): 1%; Inhibition Rate of PAI-1 Activity (%) (compound concentration 0.3 μM): 27%
CCCCN(CC(=O)O)c1cc(-c2ccc(OC(F)(F)F)cc2)ccc1Oc1ccc(C(C)(C)C)cc1 [Compound 428] | – | 94 | 92 | Inhibition Rate of PAI-1 Activity (%) (compound concentration 0.1 μM): 18%; Inhibition Rate of PAI-1 Activity (%) (compound concentration 0.3 μM): 36%
CCCCCCOc1ccc(-c2ccc(OC(F)(F)F)cc2)cc1OC(CCCCCC)C(=O)O (centres unmarked) [Compound 429] | – | 95 | 93 | Inhibition Rate of PAI-1 Activity (%) (compound concentration 0.1 μM): 7%; Inhibition Rate of PAI-1 Activity (%) (compound concentration 0.3 μM): 9%
CCCCCCOc1cc(-c2ccc(OC(F)(F)F)cc2)ccc1OC(CCCCCC)C(=O)O (centres unmarked) [Compound 430] | – | >99 | 97 | Inhibition Rate of PAI-1 Activity (%) (compound concentration 0.1 μM): 1%; Inhibition Rate of PAI-1 Activity (%) (compound concentration 0.3 μM): 15%
